From publication PMC10938783, “A novel pan-PI3K inhibitor KTC1101 synergizes with anti-PD-1 therapy by targeting tumor suppression and immune activation” (Molecular Cancer, 2024)

Tested on: B16 cells gene expression
Assay: RNA-Seq (DEGs, GSEA, heatmaps) of B16 cells
Conditions: B16 cells, KTC 0.2μM

COc1cc(N)cc2c1nc(C(F)F)n2-c1nc(N2CCCOCC2)nc(N2CCOCC2)n1 [KTC1101, 2-(difluoromethyl)-4-methoxy-1-(4-morpholino-6-(1,4-oxazepan-4-yl)-1,3,5-triazin-2-yl)-1H-benzo[d]imidazol-6-amine]
NES: Platinum drug resistance (GSEA KEGG mmu01524): -1.706
enrichmentScore: Platinum drug resistance (GSEA KEGG mmu01524): -0.4321
NES: Ribosome (GSEA KEGG mmu03010): 2.0791
enrichmentScore: Ribosome (GSEA KEGG mmu03010): 0.5599
NES: Nucleocytoplasmic transport (GSEA KEGG mmu03013): -1.168
enrichmentScore: Nucleocytoplasmic transport (GSEA KEGG mmu03013): -0.2706
NES: DNA replication (GSEA KEGG mmu03030): -1.22
enrichmentScore: DNA replication (GSEA KEGG mmu03030): -0.374
NES: Proteasome (GSEA KEGG mmu03050): -1.869
enrichmentScore: Proteasome (GSEA KEGG mmu03050): -0.5072
NES: PPAR signaling pathway (GSEA KEGG mmu03320): -1.414
enrichmentScore: PPAR signaling pathway (GSEA KEGG mmu03320): -0.3831
NES: Homologous recombination (GSEA KEGG mmu03440): -1.259
enrichmentScore: Homologous recombination (GSEA KEGG mmu03440): -0.3597
NES: MAPK signaling pathway (GSEA KEGG mmu04010): 1.18
enrichmentScore: MAPK signaling pathway (GSEA KEGG mmu04010): 0.3038
NES: ErbB signaling pathway (GSEA KEGG mmu04012): 1.235
enrichmentScore: ErbB signaling pathway (GSEA KEGG mmu04012): 0.3633
NES: Rap1 signaling pathway (GSEA KEGG mmu04015): 1.294
enrichmentScore: Rap1 signaling pathway (GSEA KEGG mmu04015): 0.3507
NES: Calcium signaling pathway (GSEA KEGG mmu04020): 1.795
enrichmentScore: Calcium signaling pathway (GSEA KEGG mmu04020): 0.4973
NES: cGMP-PKG signaling pathway (GSEA KEGG mmu04022): 1.703
enrichmentScore: cGMP-PKG signaling pathway (GSEA KEGG mmu04022): 0.4759
NES: cAMP signaling pathway (GSEA KEGG mmu04024): 1.563
enrichmentScore: cAMP signaling pathway (GSEA KEGG mmu04024): 0.4327
NES: Cytokine-cytokine receptor interaction (GSEA KEGG mmu04060): 1.941
enrichmentScore: Cytokine-cytokine receptor interaction (GSEA KEGG mmu04060): 0.59
NES: Viral protein interaction with cytokine and cytokine receptor (GSEA KEGG mmu04061): 2.1
enrichmentScore: Viral protein interaction with cytokine and cytokine receptor (GSEA KEGG mmu04061): 0.7876
NES: Chemokine signaling pathway (GSEA KEGG mmu04062): 1.837
enrichmentScore: Chemokine signaling pathway (GSEA KEGG mmu04062): 0.514
NES: NF-kappa B signaling pathway (GSEA KEGG mmu04064): 1.257
enrichmentScore: NF-kappa B signaling pathway (GSEA KEGG mmu04064): 0.3844
NES: HIF-1 signaling pathway (GSEA KEGG mmu04066): -1.602
enrichmentScore: HIF-1 signaling pathway (GSEA KEGG mmu04066): -0.3782
NES: Phospholipase D signaling pathway (GSEA KEGG mmu04072): 1.435
enrichmentScore: Phospholipase D signaling pathway (GSEA KEGG mmu04072): 0.4011
NES: Neuroactive ligand-receptor interaction (GSEA KEGG mmu04080): 1.734
enrichmentScore: Neuroactive ligand-receptor interaction (GSEA KEGG mmu04080): 0.5578
NES: Cell cycle (GSEA KEGG mmu04110): -1.229
enrichmentScore: Cell cycle (GSEA KEGG mmu04110): -0.265
NES: Oocyte meiosis (GSEA KEGG mmu04114): -1.291
enrichmentScore: Oocyte meiosis (GSEA KEGG mmu04114): -0.2991
NES: Protein processing in endoplasmic reticulum (GSEA KEGG mmu04141): -1.222
enrichmentScore: Protein processing in endoplasmic reticulum (GSEA KEGG mmu04141): -0.2637
NES: Lysosome (GSEA KEGG mmu04142): -1.281
enrichmentScore: Lysosome (GSEA KEGG mmu04142): -0.2917
NES: Phagosome (GSEA KEGG mmu04145): -1.483
enrichmentScore: Phagosome (GSEA KEGG mmu04145): -0.3503
NES: PI3K-Akt signaling pathway (GSEA KEGG mmu04151): 1.456
enrichmentScore: PI3K-Akt signaling pathway (GSEA KEGG mmu04151): 0.3693
NES: Cellular senescence (GSEA KEGG mmu04218): 1.209
enrichmentScore: Cellular senescence (GSEA KEGG mmu04218): 0.3231
NES: Cardiac muscle contraction (GSEA KEGG mmu04260): 1.313
enrichmentScore: Cardiac muscle contraction (GSEA KEGG mmu04260): 0.4187
NES: Adrenergic signaling in cardiomyocytes (GSEA KEGG mmu04261): 1.264
enrichmentScore: Adrenergic signaling in cardiomyocytes (GSEA KEGG mmu04261): 0.3566
NES: Wnt signaling pathway (GSEA KEGG mmu04310): 1.195
enrichmentScore: Wnt signaling pathway (GSEA KEGG mmu04310): 0.334
NES: Notch signaling pathway (GSEA KEGG mmu04330): 1.378
enrichmentScore: Notch signaling pathway (GSEA KEGG mmu04330): 0.4468
NES: Hedgehog signaling pathway (GSEA KEGG mmu04340): -1.456
enrichmentScore: Hedgehog signaling pathway (GSEA KEGG mmu04340): -0.4001
NES: TGF-beta signaling pathway (GSEA KEGG mmu04350): 1.497
enrichmentScore: TGF-beta signaling pathway (GSEA KEGG mmu04350): 0.4579
NES: VEGF signaling pathway (GSEA KEGG mmu04370): -1.413
enrichmentScore: VEGF signaling pathway (GSEA KEGG mmu04370): -0.3829
NES: Apelin signaling pathway (GSEA KEGG mmu04371): 1.504
enrichmentScore: Apelin signaling pathway (GSEA KEGG mmu04371): 0.4209
NES: Osteoclast differentiation (GSEA KEGG mmu04380): 1.356
enrichmentScore: Osteoclast differentiation (GSEA KEGG mmu04380): 0.3943
NES: Hippo signaling pathway (GSEA KEGG mmu04390): 1.527
enrichmentScore: Hippo signaling pathway (GSEA KEGG mmu04390): 0.4244
NES: Focal adhesion (GSEA KEGG mmu04510): 1.45
enrichmentScore: Focal adhesion (GSEA KEGG mmu04510): 0.3877
NES: ECM-receptor interaction (GSEA KEGG mmu04512): 1.51
enrichmentScore: ECM-receptor interaction (GSEA KEGG mmu04512): 0.4857
NES: Gap junction (GSEA KEGG mmu04540): 1.307
enrichmentScore: Gap junction (GSEA KEGG mmu04540): 0.3903
NES: Complement and coagulation cascades (GSEA KEGG mmu04610): 1.788
enrichmentScore: Complement and coagulation cascades (GSEA KEGG mmu04610): 0.6389
NES: Neutrophil extracellular trap formation (GSEA KEGG mmu04613): 1.259
enrichmentScore: Neutrophil extracellular trap formation (GSEA KEGG mmu04613): 0.3655
NES: Toll-like receptor signaling pathway (GSEA KEGG mmu04620): 1.2254
enrichmentScore: Toll-like receptor signaling pathway (GSEA KEGG mmu04620): 0.3682
NES: NOD-like receptor signaling pathway (GSEA KEGG mmu04621): 1.434
enrichmentScore: NOD-like receptor signaling pathway (GSEA KEGG mmu04621): 0.4008
NES: C-type lectin receptor signaling pathway (GSEA KEGG mmu04625): 1.433
enrichmentScore: C-type lectin receptor signaling pathway (GSEA KEGG mmu04625): 0.4281
NES: JAK-STAT signaling pathway (GSEA KEGG mmu04630): 1.466
enrichmentScore: JAK-STAT signaling pathway (GSEA KEGG mmu04630): 0.4286
NES: Hematopoietic cell lineage (GSEA KEGG mmu04640): 1.336
enrichmentScore: Hematopoietic cell lineage (GSEA KEGG mmu04640): 0.501
NES: IL-17 signaling pathway (GSEA KEGG mmu04657): 1.494
enrichmentScore: IL-17 signaling pathway (GSEA KEGG mmu04657): 0.4654
NES: Th17 cell differentiation (GSEA KEGG mmu04659): 1.198
enrichmentScore: Th17 cell differentiation (GSEA KEGG mmu04659): 0.3665
NES: Fc epsilon RI signaling pathway (GSEA KEGG mmu04664): -1.329
enrichmentScore: Fc epsilon RI signaling pathway (GSEA KEGG mmu04664): -0.3636
NES: TNF signaling pathway (GSEA KEGG mmu04668): 1.66
enrichmentScore: TNF signaling pathway (GSEA KEGG mmu04668): 0.4756
NES: Circadian rhythm (GSEA KEGG mmu04710): -1.714
enrichmentScore: Circadian rhythm (GSEA KEGG mmu04710): -0.5347
NES: Circadian entrainment (GSEA KEGG mmu04713): 1.598
enrichmentScore: Circadian entrainment (GSEA KEGG mmu04713): 0.4957
NES: Synaptic vesicle cycle (GSEA KEGG mmu04721): -1.378
enrichmentScore: Synaptic vesicle cycle (GSEA KEGG mmu04721): -0.3771
NES: Neurotrophin signaling pathway (GSEA KEGG mmu04722): 1.347
enrichmentScore: Neurotrophin signaling pathway (GSEA KEGG mmu04722): 0.3745
NES: Glutamatergic synapse (GSEA KEGG mmu04724): 1.249
enrichmentScore: Glutamatergic synapse (GSEA KEGG mmu04724): 0.3819
NES: Cholinergic synapse (GSEA KEGG mmu04725): 1.403
enrichmentScore: Cholinergic synapse (GSEA KEGG mmu04725): 0.4174
NES: Olfactory transduction (GSEA KEGG mmu04740): 1.83
enrichmentScore: Olfactory transduction (GSEA KEGG mmu04740): 0.66
NES: Taste transduction (GSEA KEGG mmu04742): 1.885
enrichmentScore: Taste transduction (GSEA KEGG mmu04742): 0.7021
NES: Regulation of actin cytoskeleton (GSEA KEGG mmu04810): 1.182
enrichmentScore: Regulation of actin cytoskeleton (GSEA KEGG mmu04810): 0.312
NES: Motor proteins (GSEA KEGG mmu04814): -1.623
enrichmentScore: Motor proteins (GSEA KEGG mmu04814): -0.3694
NES: Insulin secretion (GSEA KEGG mmu04911): 1.364
enrichmentScore: Insulin secretion (GSEA KEGG mmu04911): 0.4349
NES: Ovarian steroidogenesis (GSEA KEGG mmu04913): 1.397
enrichmentScore: Ovarian steroidogenesis (GSEA KEGG mmu04913): 0.499
NES: Progesterone-mediated oocyte maturation (GSEA KEGG mmu04914): -1.352
enrichmentScore: Progesterone-mediated oocyte maturation (GSEA KEGG mmu04914): -0.3392
NES: Thyroid hormone synthesis (GSEA KEGG mmu04918): 1.21
enrichmentScore: Thyroid hormone synthesis (GSEA KEGG mmu04918): 0.3822
NES: Thyroid hormone signaling pathway (GSEA KEGG mmu04919): -1.193
enrichmentScore: Thyroid hormone signaling pathway (GSEA KEGG mmu04919): -0.278
NES: Oxytocin signaling pathway (GSEA KEGG mmu04921): 1.2549
enrichmentScore: Oxytocin signaling pathway (GSEA KEGG mmu04921): 0.3525
NES: Glucagon signaling pathway (GSEA KEGG mmu04922): -1.435
enrichmentScore: Glucagon signaling pathway (GSEA KEGG mmu04922): -0.3522
NES: Regulation of lipolysis in adipocytes (GSEA KEGG mmu04923): 1.37
enrichmentScore: Regulation of lipolysis in adipocytes (GSEA KEGG mmu04923): 0.4649
NES: Renin secretion (GSEA KEGG mmu04924): 1.644
enrichmentScore: Renin secretion (GSEA KEGG mmu04924): 0.5567
NES: Aldosterone synthesis and secretion (GSEA KEGG mmu04925): 1.273
enrichmentScore: Aldosterone synthesis and secretion (GSEA KEGG mmu04925): 0.3803
NES: Relaxin signaling pathway (GSEA KEGG mmu04926): 1.257
enrichmentScore: Relaxin signaling pathway (GSEA KEGG mmu04926): 0.3545
NES: Cortisol synthesis and secretion (GSEA KEGG mmu04927): 1.396
enrichmentScore: Cortisol synthesis and secretion (GSEA KEGG mmu04927): 0.4573
NES: Parathyroid hormone synthesis, secretion and action (GSEA KEGG mmu04928): 1.74
enrichmentScore: Parathyroid hormone synthesis, secretion and action (GSEA KEGG mmu04928): 0.5119
NES: Insulin resistance (GSEA KEGG mmu04931): -1.682
enrichmentScore: Insulin resistance (GSEA KEGG mmu04931): -0.394
NES: AGE-RAGE signaling pathway in diabetic complications (GSEA KEGG mmu04933): 1.385
enrichmentScore: AGE-RAGE signaling pathway in diabetic complications (GSEA KEGG mmu04933): 0.4005
NES: Growth hormone synthesis, secretion and action (GSEA KEGG mmu04935): 1.209
enrichmentScore: Growth hormone synthesis, secretion and action (GSEA KEGG mmu04935): 0.3459
NES: Collecting duct acid secretion (GSEA KEGG mmu04966): -1.6527
enrichmentScore: Collecting duct acid secretion (GSEA KEGG mmu04966): -0.5648
NES: Gastric acid secretion (GSEA KEGG mmu04971): 1.497
enrichmentScore: Gastric acid secretion (GSEA KEGG mmu04971): 0.4728
NES: Carbohydrate digestion and absorption (GSEA KEGG mmu04973): 1.258
enrichmentScore: Carbohydrate digestion and absorption (GSEA KEGG mmu04973): 0.4436
NES: Protein digestion and absorption (GSEA KEGG mmu04974): 1.8879
enrichmentScore: Protein digestion and absorption (GSEA KEGG mmu04974): 0.6074
